Source: patent US8455421B2, “Compositions and methods for the removal of chewing gum residues from substrates” (Expelliere Int Ltd, priority 2008, dated 2013)

tested on: laccase from Trametes versicolor (LTV); assay: Compatibility of laccase with ionic liquids (oxidation of catechol to 1,2-benzoquinone); type: biochemical; conditions: laccase 25 mg/L, sodium phosphate-citrate buffer 25 mM, pH 4.5, 22° C., 405 nm
Text: An important consideration in preparing ionic liquids comprising enzymes for use in the methods of the present invention is the activity of the enzyme in the presence of the ionic liquid. The compatibility of enzymes and ionic liquids can be easily determined by the skilled person by standard laboratory techniques. One suitable technique uses high throughput screening of ionic liquids and enzymes using multiple well plates. A standard enzyme-catalysed transformation may be used to analyse the activity of a particular enzyme in the presence of various ionic liquids at various concentrations. One suitable reaction is the oxidation of catechol to 1,2-benzoquinone. The progress of this reaction can be monitored visually by the dark colour of 1,2-benzoquinone and spectrally, for instance using UV-Vis spectrometry. This transformation can be represented by the following reaction scheme, in which laccase is exemplified:
Compatibility of enzymes with ionic liquid compositions was determined by high throughput screening on multiple well plates of various enzymes against various concentrations of ionic liquids in water. The oxidation of catechol to 1,2-benzoquinone was measured in aqueous sodium phosphate-citrate buffer solutions (25 mM) containing laccase (25 mgL^−1) and an ionic liquid, premixed at pH 6.0 for laccase from Agaricus bisporus (LAB) and at pH 4.5 for laccase from Trametes versicolor (LTV). The pH was verified by diluting the final reaction mixture in deionised water and measuring the pH using a pH meter. The rate of 1,2-benzoquinone formation was measured using an Agilent spectrophotometer at 405 nm and 22° C. using an extinction coefficient of 760 M^−1 cm^−1. The activity was measured over a range of ionic liquid concentrations from 0 to 99.4%, since the laccases were not soluble in the pure ionic liquids, but could be dissolved when the ionic liquids were mixed with 0.6% of buffer solution containing the enzyme.

Question: Which “Concentration of ionic liquid in water that inactivates Laccase (LTV)” value (shortened to “Concentration of ionic liquid”) does the source give for `CCOS(=O)(=O)[O-].C[N+](C)(C)CCCO` [[N1,1,1,3OH]^+[EtOSO3]^−] here?
Answer: 30%

Question: Which “Concentration of ionic liquid” value does the source give for `CCOS(=O)(=O)[O-].CC[N+](C)(C)CCO` [[N2,1,1,2OH]^+[EtOSO3]^−] here?
Answer: 30%

Question: With `CCCC[N+](C)(C)CC.CCOS(=O)(=O)[O-]` [[N4,2,1,1]^+[EtOSO3]^−] as the compound, how does the “Concentration of ionic liquid” value read?
Answer: 70%

Question: `CCCCCCCC[N+](C)(C)CCCC.O=[N+]([O-])[O-]` [[N8,4,1,1]^+[NO3]^−] was tested. Which “Concentration of ionic liquid” value did it give?
Answer: 90%

Question: For `CCCCC(CC)COC(=O)CC(C(=O)OCC(CC)CCCC)S(=O)(=O)[O-].CCCCn1cc[n+](C)c1` (stereo not drawn) [[bmim][docusate], 1-methyl-3-butylimidazolium docusate], which “Concentration of ionic liquid” value is on record?
Answer: 90%

Question: `CC(O)C(=O)[O-].CCCCn1cc[n+](C)c1` [[bmim]^+[CH3CH(OH)CO2]^−] was tested. Which “Concentration of ionic liquid” value did it give?
Answer: 90%

Question: For `CCCCC(CC)COC(=O)CC(C(=O)OCC(CC)CCCC)S(=O)(=O)[O-].CCCC[N+]1(C)CCCC1` (stereo not drawn) [[bmpyr]^+[docusate]^−], which “Concentration of ionic liquid” value is on record?
Answer: 90%

Question: For `CCCCC(CC)COC(=O)CC(C(=O)OCC(CC)CCCC)S(=O)(=O)[O-].CCn1cc[n+](C)c1` (stereo not drawn) [[emim][docusate]], which “Concentration of ionic liquid” value is on record?
Answer: 90%

Question: For `CCOS(=O)(=O)[O-].CCn1cc[n+](C)c1` [[emim]^+[EtOSO3]^−], which “Concentration of ionic liquid” value is on record?
Answer: 30%
